Results taken from US20250049029A1, “Agrochemical Compositions” (priority 2021, published 2025).

What was measured:
[1] = Micrographic check for crystals after combining active ingredient with permeable S-metolachlor capsule suspension; format: physicochemical
Procedure: During further testing, Composition 2 was made with metribuzin being the only active ingredient (i.e., S-metolachlor and mesotrione were not present). An image, at 50-micron scale bar, is provided at FIG. 4A. To this formulation, the capsule suspension used in Composition 2 was added.
Further testing was done by replacing the metribuzin with sulfentrazone. In these tests sulfentrazone technical (powder, Dv(95)=307 microns) was added to a composition the CS of Composition 2 at a ratio of S-metolachlor:sulfentrazone of 10:0.8, and mixed for 1 hour at 30° C. to provide additional solubilization over room temperature.

[2] = Particle size and wet sieve residue of S-metolachlor CS mixed with sulfentrazone technical; format: physicochemical; details: single component, before mixing
Procedure: Additional testing was done using two jars with S-metolachlor CS of Composition 2 and 8% sulfentrazone technical at a ratio of […]. One was mixed at room temperature and one at 30° C. for 1 hour.

Row | SMILES | metribuzin crystals visible ([1]; Composition 2 made with metribuzin as only active ingredient, after adding the capsule suspension used in Composition 2, FIG. 4B) | Dv(50) [2] | Dv(95) [2] | sulfentrazone crystals observed ([1]; sulfentrazone technical added to CS of Composition 2, S-metolachlor:sulfentrazone 10:0.8, mixed 1 hour at 30° C., FIG. 5) | Dv(95) ([1]; sulfentrazone technical powder, before addition) [microns]
1 | CSc1nnc(C(C)(C)C)c(=O)n1N [metribuzin, Metribuzin] | no metribuzin crystals appeared visible |  |  |  | 
2 | Cc1nn(-c2cc(NS(C)(=O)=O)c(Cl)cc2Cl)c(=O)n1C(F)F [sulfentrazone, Sulfentrazone] |  | 30.3 | 307 | no sulfentrazone crystals were observed | 307
